According to patent US20260166162A1, “CARBON CHAIN SUBSTANCE FOR REGULATING TRANSMEMBRANE TRANSPORT AND FLUIDITY OF CELL MEMBRANES, AND PREPARATION AND USE THEREOF” (priority 2022, published 2026):

Key:
[1] = system: influenza pseudovirus H7N9-Fluc; assay: microbe, parasite or virus in culture; type: cell-based; conditions: n=3
Neocopyovirus = type: in vivo; conditions: 1 mM; n=3
Escherichia coli = assay: Bacteriostasis/sterilization test (plate count); type: cell-based; conditions: 9 mM, 2 h
Staphylococcus aureus = assay: Bacteriostasis/sterilization test (plate count); type: cell-based; conditions: 2 h
[2] = system: Methicillin-resistant Staphylococcus aureus; assay: Bacteriostasis/sterilization test (plate count); type: cell-based; conditions: 9 mM, 2 h; listed as printed as Methicillin-resistant Streptococcus pneumoniae
Streptococcus pneumoniae = assay: Bacteriostasis/sterilization test (plate count); type: cell-based; conditions: 9 mM, 2 h
Klebsiella pneumoniae = assay: Bacteriostasis/sterilization test (plate count); type: cell-based; conditions: 9 mM, 2 h
Pseudomonas aeruginosa = assay: Bacteriostasis/sterilization test (plate count); type: cell-based; conditions: 9 mM, 2 h
Hela cells = assay: Cell membrane fluidity (Laurdan fluorescence recovery) in Hela cells; type: cell-based
293T cells = assay: Cellular phagocytosis of DiD-loaded lipid vesicles (nano-drugs) by 293T cells (Example II-51, Table II-29); type: cell-based; conditions: 293T cells pretreated 4 h, DiD lipid vesicles 2 h, n=3, untreated control 226.46 ± 1.26

Glucosamine-erucic acid
Inhibition rate (%) ([1]; 2 nM): 50.54 ± 3.54%
Inhibition rate (%) ([1]; 5 nM): 39.66 ± 3.66%
Inhibition rate (%) ([1]; 10 nM): 48.04 ± 7.56%
Inhibition rate (%) ([1]; 50 nM): 47.33 ± 4.56%
Inhibition rate (%) ([1]; 100 nM): 53.86 ± 3.98%
Inhibition rate (%) ([1]; 1 μM): 12.07 ± 2.65%
Inhibition rate (%) ([1]; 10 μM): 54.05 ± 5.05%
Inhibition rate (%) ([1]; 50 μM): 91.44 ± 4.48%
Inhibition rate (%) ([1]; 100 μM): 99.78 ± 5.64%
Fluorescence intensity (Neocopyovirus): 6.8 ± 0.49

CCCCCCCC(=O)OCC1OC(O)C(O)C(O)C1O (stereo not shown)
Sterilization rate (%) (Escherichia coli): >99%
IC50 (Staphylococcus aureus; read-out: half maximal inhibition concentration): 4.5 mM
inhibition rate (Staphylococcus aureus; concentration 72 mM-9 mM): greater than 99%
Sterilization rate (%) [2]: >99%
Sterilization rate (%) (Streptococcus pneumoniae): >99%
Sterilization rate (%) (Klebsiella pneumoniae): >99%
Sterilization rate (%) (Pseudomonas aeruginosa): >99%

CCCCCCCC(=O)O [n-octanoic acid]
Fluorescence recovery rate % (Hela cells; 2 nM, 20 s): 65.57%
Fluorescence recovery rate % (Hela cells; 2 nM, 40 s): 66.78%
Fluorescence recovery rate % (Hela cells; 2 nM, 60 s): 66.54%
Fluorescence recovery rate % (Hela cells; 2 nM, 80 s): 67.22%
Fluorescence recovery rate % (Hela cells; 5 nM, 20 s): 66.75%
Fluorescence recovery rate % (Hela cells; 5 nM, 40 s): 67.05%
Fluorescence recovery rate % (Hela cells; 5 nM, 60 s): 67.59%
Fluorescence recovery rate % (Hela cells; 5 nM, 80 s): 66.98%
Fluorescence recovery rate % (Hela cells; 10 nM, 20 s): 64.02%
Fluorescence recovery rate % (Hela cells; 10 nM, 40 s): 65.23%
Fluorescence recovery rate % (Hela cells; 10 nM, 60 s): 65.45%
Fluorescence recovery rate % (Hela cells; 10 nM, 80 s): 66.51%
Fluorescence recovery rate % (Hela cells; 50 nM, 20 s): 67.32%
Fluorescence recovery rate % (Hela cells; 50 nM, 40 s): 67.94%
Fluorescence recovery rate % (Hela cells; 50 nM, 60 s): 68.02%
Fluorescence recovery rate % (Hela cells; 50 nM, 80 s): 68.65%
Fluorescence recovery rate % (Hela cells; 50 μM, 20 s): 64.31%
Fluorescence recovery rate % (Hela cells; 50 μM, 40 s): 69.09%
Fluorescence recovery rate % (Hela cells; 50 μM, 60 s): 73.41%
Fluorescence recovery rate % (Hela cells; 50 μM, 80 s): 78.32%
Fluorescence recovery rate % (Hela cells; 100 μM, 20 s): 66.15%
Fluorescence recovery rate % (Hela cells; 100 μM, 40 s): 71.58%
Fluorescence recovery rate % (Hela cells; 100 μM, 60 s): 75.11%
Fluorescence recovery rate % (Hela cells; 100 μM, 80 s): 79.84%
Fluorescence intensity (Neocopyovirus): 5.8 ± 0.76
Fluorescence intensity (293T cells; 2 nM): 157.30
Fluorescence intensity (293T cells; 5 nM): 108.56
Fluorescence intensity (293T cells; 10 nM): 83.70
Fluorescence intensity (293T cells; 50 nM): 76.25
Fluorescence intensity (293T cells; 100 nM): 106.35
Fluorescence intensity (293T cells; 1 uM): 141.79
Fluorescence intensity (293T cells; 10 uM): 124.85
Fluorescence intensity (293T cells; 50 uM): 64.86
Fluorescence intensity (293T cells; 100 uM): 36.35 ± 6.23

O=C(O)CCCCCCC(=O)O [octanedioic acid]
Fluorescence recovery rate % (Hela cells; 2 nM, 20 s): 63.58%
Fluorescence recovery rate % (Hela cells; 2 nM, 40 s): 64.25%
Fluorescence recovery rate % (Hela cells; 2 nM, 60 s): 65.77%
Fluorescence recovery rate % (Hela cells; 2 nM, 80 s): 65.12%
Fluorescence recovery rate % (Hela cells; 5 nM, 20 s): 64.56%
Fluorescence recovery rate % (Hela cells; 5 nM, 40 s): 64.88%
Fluorescence recovery rate % (Hela cells; 5 nM, 60 s): 64.78%
Fluorescence recovery rate % (Hela cells; 5 nM, 80 s): 65.09%
Fluorescence recovery rate % (Hela cells; 10 nM, 20 s): 63.99%
Fluorescence recovery rate % (Hela cells; 10 nM, 40 s): 64.23%
Fluorescence recovery rate % (Hela cells; 10 nM, 60 s): 64.45%
Fluorescence recovery rate % (Hela cells; 10 nM, 80 s): 64.66%
Fluorescence recovery rate % (Hela cells; 50 nM, 20 s): 66.09%
Fluorescence recovery rate % (Hela cells; 50 nM, 40 s): 66.42%
Fluorescence recovery rate % (Hela cells; 50 nM, 60 s): 66.89%
Fluorescence recovery rate % (Hela cells; 50 nM, 80 s): 67.94%
Fluorescence recovery rate % (Hela cells; 50 μM, 20 s): 64.41%
Fluorescence recovery rate % (Hela cells; 50 μM, 40 s): 70.05%
Fluorescence recovery rate % (Hela cells; 50 μM, 60 s): 74.65%
Fluorescence recovery rate % (Hela cells; 50 μM, 80 s): 80.36%
Fluorescence recovery rate % (Hela cells; 100 μM, 20 s): 65.77%
Fluorescence recovery rate % (Hela cells; 100 μM, 40 s): 71.36%
Fluorescence recovery rate % (Hela cells; 100 μM, 60 s): 76.81%
Fluorescence recovery rate % (Hela cells; 100 μM, 80 s): 79.79%
Fluorescence intensity (Neocopyovirus): 2.9 ± 0.22
Fluorescence intensity (293T cells; 2 nM): 108.61 ± 5.68
Fluorescence intensity (293T cells; 5 nM): 68.71 ± 4.36
Fluorescence intensity (293T cells; 10 nM): 68.98 ± 8.56
Fluorescence intensity (293T cells; 50 nM): 50.66 ± 5.66
Fluorescence intensity (293T cells; 100 nM): 44.30 ± 6.35
Fluorescence intensity (293T cells; 1 uM): 215.30 ± 5.36
Fluorescence intensity (293T cells; 10 uM): 349.34 ± 9.48
Fluorescence intensity (293T cells; 50 uM): 21.83 ± 1.85
Fluorescence intensity (293T cells; 100 uM): 2.79 ± 0.22
